# Measured values: US10981932B2, “Macrocyclic indole derivatives” (Bayer Aktiengesellschaft, priority 2016, dated 2021)
# Counter-ions that a name gives are not always drawn. Like-named read-outs stand apart in the source and are kept apart here.
# Tests used:
# SUDHL5 [1] = assay: Induction of cytotoxicity (CellTiter-Glo, 5 h), SUDHL5
# Procedure: (§3) Therefore, cytotoxicity assays were run in parallel in SUDHL5 and SUDHL10 cells.
# (§4) The different cell lines were plated in culture medium (RPMI 1640 [GIBCO #22400-089]supplemented with 10% Fetal Bovine Serum) at a density of 3.300 cells in 30 μl/well in a sterile, solid black, flat bottom, polystyrene, TC-treated 384-well microplate (Corning #3571) using Multidrop Combi Reagent Dispenser. As a control, medium without cells was also added to the plate. Cells were incubated in a humidified incubator at 37° C. overnight. On the next day, the cells were treated with compounds (stock solution, 10 mM in DMSO) using the HP D300 Digital Dispenser in a concentration range of 3.3×10e-5 M (33 μM) to 5×10e-9 M (5 nM) in a single-dot curve with at least 16 dilutions and a DMSO concentration of 0.33%. Rim wells were excluded. The cells were incubated for 5 h hours in a humidified incubator at 37° C. After this incubation, 30 μl of CellTiter-Glo@ Luminescent Cell Viability reagent (Promega, G7573) was added to each well using the Multidrop Combi Reagent Dispenser, followed by 15 min incubation on a shaker at room temperature. Finally, luminescence was read at 0.1 ms, with a gain of 3000 using the PHERAstar FS microplate reader (BMG Labtech).
# (§5) The Bella DRC Master Sheet was used to calculate IC50s, with fixed CI=0 and C0=1.
# SUDHL5 [2] = assay: Anti-proliferative effect (CellTiter-Glo, 72 h), SUDHL5; format: cell-based; settings: SUDHL5 cells, antiproliferation, median, read-out: Antiproli SUDHL5 [M] (median)
# Summary of the method: (§1)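 Anti-proliferative activity is derived from ATP-based luminescence (CellTiter-Glo) in cells exposed to compound for 72 h at 37 °C, set against a time zero plate read at seeding.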
# SUDHL10 [3] = assay: Induction of caspase-3/7 activity (Caspase-Glo 3/7), SUDHL10; format: cell-based; settings: caspase-3/7 induction, SUDHL10 cells, 3 h treatment, median
# Summary of the method: (§2)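 Caspase-Glo 3/7 luminescence measured after 3 h compound exposure at 37 °C in SUDHL10 and SUDHL5 cells. EC50 values come from background-corrected signals, with curve bottom set to 1 and plateau set to maximal induction by the reference compound.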
# SUDHL5 [4] = assay: Induction of caspase-3/7 activity (Caspase-Glo 3/7), SUDHL5; format: cell-based; settings: caspase-3/7 induction, SUDHL5 cells, 3 h treatment, median
# Summary of the method: as §2
# SUDHL10 [5] = assay: Induction of cytotoxicity (CellTiter-Glo, 5 h), SUDHL10
# Procedure: as §3, §4, §5
# MCL-1 = MCL-1 (Homo sapiens, UniProt Q07820); assay: Protein-protein interaction assay MCL-1/Noxa BH3 peptide (MCL-1 assay), TR-FRET; format: binding; settings: MBP-MCL-1 / Noxa BH3-derived peptide, median
# Summary of the method: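 MBP-MCL-1 (1 nM final) was preincubated 10 min at 22 °C with compounds (11 concentrations, 0.1 nM–20 μM, duplicates) in Tris pH 7 buffer with NaCl, KF, Tween-20, DTT and BGG. After 1 h at 22 °C in the dark plus overnight at 4 °C, anti-MBP Eu-cryptate/streptavidin-XL665 TR-FRET was read; IC50 came from a 4-parameter fit.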
# A2780 = assay: Anti-proliferative effect (CellTiter-Glo, 72 h), A2780; format: cell-based; settings: A2780 cells, median, read-out: IC50 antiproliferation assay A2780 [M] (median)
# Summary of the method: as §1
# SUDHL10 [6] = assay: Anti-proliferative effect (CellTiter-Glo, 72 h), SUDHL10; format: cell-based; settings: SUDHL10 cells, antiproliferation, median, read-out: Antiproli SUDHL10 [M] (median)
# Summary of the method: as §1
# [7] = Homo sapiens, SU-DHL-5, 5 h, read-out: Cytotox SUDHL5 [M] (median), SUDHL5 cells, cytotoxicity induction, CellTiter-Glo, 5 h, median
# [8] = Homo sapiens, SU-DHL-5, 72 h, 72 h
# [9] = Homo sapiens, SU-DHL10, 5 h, read-out: Cytotox SUDHL10 [M] (median), SUDHL10 cells, cytotoxicity induction, CellTiter-Glo, 5 h, median
# [10] = Homo sapiens, SU-DHL10, 72 h, 72 h
# [11] = Homo sapiens, SU-DHL-5, 5 h, read-out: Cytotox SUDHL5 [M] (median), SUDHL5 cells, cytotoxicity induction, CellTiter-Glo, 5 h incubation, median
# [12] = Homo sapiens, SU-DHL-5, 72 h, 72 h incubation
# [13] = Homo sapiens, SU-DHL10, 5 h, read-out: Cytotox SUDHL10 [M] (median), SUDHL10 cells, cytotoxicity induction, CellTiter-Glo, 5 h incubation, median
# [14] = Homo sapiens, SU-DHL10, 72 h, 72 h incubation
# [15] = read-out: Cytotox SUDHL5 [M] (median), SUDHL5 cells, cytotoxicity induction, CellTiter-Glo, 5 h incubation, median
# [16] = read-out: Cytotox SUDHL10 [M] (median), SUDHL10 cells, cytotoxicity induction, CellTiter-Glo, 5 h incubation, median
# Sequence of MCL-1 (Q07820 whole entry): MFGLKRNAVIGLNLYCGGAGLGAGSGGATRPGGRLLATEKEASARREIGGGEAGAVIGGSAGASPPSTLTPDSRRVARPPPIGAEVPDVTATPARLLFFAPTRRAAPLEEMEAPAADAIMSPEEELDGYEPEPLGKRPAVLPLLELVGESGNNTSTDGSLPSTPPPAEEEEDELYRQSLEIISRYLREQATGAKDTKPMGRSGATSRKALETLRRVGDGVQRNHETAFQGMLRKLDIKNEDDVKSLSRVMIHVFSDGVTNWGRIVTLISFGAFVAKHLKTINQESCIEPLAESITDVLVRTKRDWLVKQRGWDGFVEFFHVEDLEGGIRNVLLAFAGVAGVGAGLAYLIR
SMILES,IC50 (MCL-1) [nM],IC50 (A2780) [M],"EC50 (SUDHL10 [3]; Homo sapiens, SU-DHL10, 3 h) [µM]","EC50 (SUDHL5 [4]; Homo sapiens, SU-DHL-5, 3 h) [µM]","IC50 (A2780; Homo sapiens, A2780, 72 h) [M]",IC50 (SUDHL5 [1]; [11]) [M],IC50 (SUDHL5 [2]; [12]) [M],IC50 (SUDHL10 [5]; [13]) [M],IC50 (SUDHL10 [6]; [14]) [M],also measured
"Cn1nc(CN2CC3(COC3)C2)c2c1COCCCCn1c(C(=O)O)c(CCCOc3cccc4ccccc34)c3cccc-2c31 (single isomer, unassigned; enantiomer 1) [Example 344, 1-methyl-7-[3-(naphthalen-1-yloxy)propyl]-3-(2-oxa-6-azaspiro[3.3]hept-6-ylmethyl)-1,10,11,12,13,15-hexahydropyrazolo[4′,3′:9,10][1,6]oxazacycloundecino[8,7,6-hi]indole-8-carboxylic acid-N-ethylethanamine Salt (Enantiomer 1)]",433,> 3.3e-05,,,,,,,,"IC50 (SUDHL5 [1]; read-out: Cytotox SUDHL5 [M] (median), SUDHL5 cells, cytotoxicity induction, CellTiter-Glo, 5 h, median): > 3.3e-05 M; IC50 (SUDHL5 [2]; 72 h): 2.08e-05 M; EC50 (SUDHL10 [3]): > 33 µM; EC50 (SUDHL5 [4]): > 33 µM; IC50 (SUDHL10 [5]; read-out: Cytotox SUDHL10 [M] (median), SUDHL10 cells, cytotoxicity induction, CellTiter-Glo, 5 h, median): > 3.3e-05 M; IC50 (SUDHL10 [6]; 72 h): 1.44e-05 M"
"Cn1nc(COc2ccc(NS(C)(=O)=O)cc2)c2c1COCCCCn1c(C(=O)O)c(CCCOc3cccc4ccccc34)c3cccc-2c31 (single isomer, unassigned; enantiomer 1) [Example 322, 1-methyl-3-({4-[((methylsulfonyl)amino]phenoxy}methyl)-7-[3-(naphthalen-1-yloxy)propyl]-1,10,11,12,13,15-hexahydropyrazolo[4′,3′:9,10][1,6]oxazacycloundecino[8,7,6-hi]indole-8-carboxylic Acid-N-ethylethanamine Salt (Enantiomer 1)]",1080,,> 33,> 33,> 3.3e-05,,,,,IC50 (SUDHL5 [1]; [7]): > 3.3e-05 M; IC50 (SUDHL5 [2]; [8]): 2.46e-05 M; IC50 (SUDHL10 [5]; [9]): > 3.3e-05 M; IC50 (SUDHL10 [6]; [10]): 1.9e-05 M
"COc1c2c(nn1C)COCCCCn1c(C(=O)O)c(CCCOc3cccc4ccccc34)c3cccc-2c31 (racemic) [Example 207, (rac)-3-methoxy-2-methyl-7-[3-(naphthalen-1-yloxy)propyl]-2,10,11,12,13,15-hexahydropyrazolo[4′,3′:9,10][1,6]oxazacycloundecino[8,7,6-hi]indole-8-carboxylate]",6.81,,11.4,4.85,2.47e-05,4.45e-06,5.28e-06,1.08e-05,7.76e-06,
"CCc1nn(C)c2c1-c1c(C)ccc3c(C(C)CCOc4cccc5cc(F)ccc45)c(C(=O)O)n(c13)CCCCOC2 (racemic) [Example 261, 3-ethyl-7-{4-[(6-fluoronaphthalen-1-yl)oxy]butan-2-yl}-1,4-dimethyl-1,10,11,12,13,15-hexahydropyrazolo[4′,3′:9,10][1,6]oxazacycloundecino[8,7,6-hi]indole-8-carboxylic Acid]",3.73,,3.52,1.77,1.85e-05,2.02e-06,1.17e-06,3.8e-06,4.66e-06,
"Cc1ccc2c(C(C)CCOc3cccc4ccccc34)c(C(=O)O)n3c2c1-c1c(C)nn(C)c1COCCCC3 (single isomer, unassigned) [Example 259, 1,3,4-trimethyl-7-[4-(naphthalen-1-yloxy)butan-2-yl]-1,10,11,12,13,15-hexahydropyrazolo[4′3′:9,10][1,6]oxazacycloundecino[8,7,6-hi]indole-8-carboxylic Acid]",577,2.21e-05,,,,,,,,IC50 (SUDHL5 [1]; [15]): > 3.3e-05 M; IC50 (SUDHL5 [2]; 72 h incubation): > 3.3e-05 M; EC50 (SUDHL10 [3]): > 33 µM; EC50 (SUDHL5 [4]): 31.3 µM; IC50 (SUDHL10 [5]; [16]): > 3.3e-05 M; IC50 (SUDHL10 [6]; 72 h incubation): 2.96e-05 M
"CCn1nc(C2CC2)c2c1COCCCCn1c(C(=O)O)c(CCCOc3cccc4ccccc34)c3cccc-2c31 (racemic) [Example 088, (rac)-3-Cyclopropyl-1-ethyl-7-[3-(naphthalen-1-yloxy)propyl]-1,10,11,12,13,15-hexahydropyrazolo[4′,3′:9,10][1,6]oxazacycloundecino[8,7,6-hi]indole-8-carboxylic Acid]",6.94,,> 33,13.5,2.35e-05,1.1e-05,1.76e-05,> 3.3e-05,2.67e-05,
"Cc1nn(CCN(C)C)c2c1-c1cccc3c(CCCOc4cccc5ccccc45)c(C(=O)O)n(c13)CCCCOC2 (racemic) [Example 244, (rac)-1-[2-(dimethylamino)ethyl]-3-methyl-7-[3-(naphthalen-1-yloxy)propyl]-1,10,11,12,13,15-hexahydropyrazolo[4′,3′:9,10][1,6]oxazacycloundecino[8,7,6-hi]indole-8-carboxylic Acid Trifluoroacetic Acid Salt]",6.64,,6.42,2.69,1.84e-05,3.2e-06,5.23e-06,6.6e-06,5e-06,
"CCc1c2c(nn1CCN1CCOCC1)COCCCCn1c(C(=O)O)c(CCCOc3cccc4ccccc34)c3ccc(C)c-2c31 (racemic) [Example 204, (rac)-3-ethyl-4-methyl-2-[2-(morpholin-4-yl)ethyl]-7-[3-(naphthalen-1-yloxy)propyl]-2,10,11,12,13,15-hexahydropyrazolo[4′,3′:9,10][1,6]oxazacycloundecino[8,7,6-hi]indole-8-carboxylic Acid]",3.75,,6.09,1.73,1.78e-05,1.9e-06,4.17e-06,5.63e-06,5.15e-06,
"Cc1cc(OCCCc2c(C(=O)O)n3c4c(cccc24)-c2c(C)nn(C)c2COCCC3)cc(C)c1Cl (single isomer, unassigned; enantiomer 1) [Example 014, 1-[3-(4-chloro-3,5-dimethylphenoxy)propyl]-9,11-dimethyl-5,6,8,9-tetrahydro-4H-pyrazolo[4′,3′:8,9][1,5]oxazecino[7,6,5-hi]indole-2-carboxylic acid-N-ethylethanamine Salt (Enantiomer 1)]",9.95,> 3.3e-05,> 33,26.6,,2.27e-05,2.23e-05,> 3.3e-05,7.24e-06,
"CCc1c2c(nn1C)CN(C)CCCn1c(C(=O)O)c(CCCOc3cccc4ccccc34)c3ccc(C)c-2c31 (single isomer, unassigned; enantiomer 2) [Example 146, 11-Ethyl-7,10,12-trimethyl-1-[3-(1-naphthyloxy)propyl]-4,5,6,7,8,10-hexahydropyrazolo[3′,4′:7,8][1,5]diazecino[9,10,1-hi]indole-2-carboxylic acid-N-ethylethanamine Salt (Enantiomer 2)]",9.01,1.37e-05,,,,,,,,IC50 (SUDHL5 [1]; [15]): 1.66e-05 M; IC50 (SUDHL5 [2]; 72 h incubation): 1.93e-05 M; EC50 (SUDHL10 [3]): > 33 µM; EC50 (SUDHL5 [4]): > 33 µM; IC50 (SUDHL10 [5]; [16]): 2.67e-05 M; IC50 (SUDHL10 [6]; 72 h incubation): 1.05e-05 M
"CN1CCCn2c(C(=O)O)c(CCCOc3cccc4ccccc34)c3cccc(c32)-c2c(nn3c2CCCC3)C1 (racemic) [Example 361, (rac)-7-methyl-1-[3-(naphthalen-1-yloxy)propyl]-5,6,7,8,11,12,13,14-octahydro-4H-pyrido[1″,2″:1′,5′]pyrazolo[3′,4′:7,8][1,5]diazecino[9,10,1-hi]indole-2-carboxylic Acid]",24.8,,> 33,10.1,> 3.3e-05,,,,,IC50 (SUDHL5 [1]; [7]): 1.09e-05 M; IC50 (SUDHL5 [2]; [8]): 3.66e-06 M; IC50 (SUDHL10 [5]; [9]): 1.84e-05 M; IC50 (SUDHL10 [6]; [10]): 7.7e-06 M
